Source: paper PMC4605843, “Cell-Penetrating Peptides Selectively Cross the Blood-Brain Barrier In Vivo” (PLoS ONE, 2015)
Several values for one entry are separate records, joined by “and”; a condition that tells them apart may be missing. Equal entries are not always repeated.

Legend:
[1] = test system: blood-brain barrier (BBB); experiment: Multiple time regression (MTR) analysis, blood-to-brain influx; format: in vivo, ICR-CD-1 mice; conditions: whole brain, ± 65% confidence limits
Experimental: Shortly, 200 μl of the radioiodinated CPP solution (30000 cpm/μl) was injected into the right jugular externalis vein of anesthetized ICR-CD-1 mice, which were then decapitated at 1, 3, 5, 10, 12.5 and 15 min post injection, with first and last time points performed in duplicate, after which brains were collected and measured for radioactivity using a gamma counter (Wallac Wizard 1470, Perkin Elmer). Shortly before decapitation, blood was collected from the left carotid artery, which was centrifuged (10000 g, 15 min at 21°C) in order to measure the radioactivity of blood and serum. Dermorphin and radioiodinated BSA were used as positive and negative control, respectively. The blood-to-brain entry during the experimental period of 15 min was evaluated by plotting the ratio of brain (Am(T)) and serum activity (Cp(T)), corrected for the brain weight and serum volume, respectively, versus the exposure time (Θ), expressing the theoretical steady state serum level of the iodinated peptide at a given serum concentration [37, 73]. The exposure time is calculated as the integral of the arterial serum radioactivity over time divided by the radioactivity at time t. The integral is calculated through the trapezoidal rule of the log-transformed data [73]. In the linear part of the curve, assuming a two-compartmental BBB model, data can be fitted using a linear model from which the unidirectional influx rate (Kin), also referred to as unidirectional blood to brain clearance K1 [46], and the initial brain distribution volume (Vi) can be determined using the following equation according to Gjedde and Patlak [37–40]: Am(T)/Cp(T)=Abrain(T)/Aserum(T)=Kin⋅Θ+Vi with Θ = ∫0TCp(t) ⋅ dt/Cp(T) (1)

[2] = In vitro metabolic stability in mouse brain homogenate; format: in vitro ADME; conditions: mouse brain homogenate 0.6 mg/ml protein (500 μl, 300 μg protein) + Krebs-Henseleit buffer pH 7.4, 0.1 mg/ml peptide, 37°C, 750 rpm, 0-120 min, HPLC-UV 215 nm
Experimental: (§1) Prior to use, the protein content of each homogenate was determined using the Pierce Modified Lowry Protein Assay method (Thermo Scientific) to generate a stock solution with a protein concentration of 0.6 mg/ml by dilution with Krebs-Henseleit buffer (pH 7.4, Sigma-Aldrich). […] After sampling, enzymatic activity was terminated by additional heat inactivation at 95°C for 5 min, followed by cooling the samples in an ice bath for 30 min. […] Therefore, a solid phase extraction (SPE) protocol using an Oasis® WCX μelution plate (Waters, Zellik, Belgium) was used prior to HPLC-UV analysis. In the Supporting Information, the protocol of the SPE extraction procedure is described (S1 Text). Blank control solutions were prepared as described above, but without adding the peptide. To confirm chemical stability and mass balance, control reference solutions without tissue homogenate or with a prior heat inactivation were analyzed as well. The HPLC-UV system consisted of a Waters Alliance 2695 separation module and a Waters 2996 photodiode array (PDA) detector (detection from 190-400 nm, quantification at 215 nm), fitted with Empower 2 software for data handling (Waters). […] Appropriate gradients for separation of the peptides and their metabolites were created by mixtures of water (0.1% trifluoroacetic acid m/V) and acetonitrile (0.1% trifluoroacetic acid m/V).

[3] = In vitro metabolic stability in mouse liver homogenate; format: in vitro ADME; conditions: mouse liver homogenate 0.6 mg/ml protein (500 μl, 300 μg protein) + Krebs-Henseleit buffer pH 7.4, 0.1 mg/ml peptide, 37°C, 750 rpm, 0-120 min, HPLC-UV 215 nm
Experimental: as §1

[4] = In vitro metabolic stability in mouse kidney homogenate; format: in vitro ADME; conditions: mouse kidney homogenate 0.6 mg/ml protein (500 μl, 300 μg protein) + Krebs-Henseleit buffer pH 7.4, 0.1 mg/ml peptide, 37°C, 750 rpm, 0-120 min, HPLC-UV 215 nm
Experimental: as §1

[5] = test system: brain parenchyma and capillaries; experiment: Capillary depletion method: brain parenchyma/capillary distribution; format: in vivo, ICR-CD-1 mice; conditions: capillary depletion, 10 min after IV injection of radiolabeled peptide (200 μl, 10000 cpm/μl), brain perfused with lactated Ringer's buffer, two ICR-CD-1 mice, gamma counter
Experimental: The capillary depletion method was used to evaluate the distribution of the peptide between the brain parenchyma and capillaries. In summary (see Materials and Methods in [45]), 200 μl of a radiolabeled peptide solution (10000 cpm/μl) was injected in the jugular externalis vein of two anesthetized ICR-CD-1 mice. Ten minutes after IV injection, mice were decapitated and brains were collected and measured for radioactivity. […] The resulting homogenate was weighed and centrifuged at 5400 g for 30 min at 4°C, resulting in a pellet, i.e. capillaries, and supernatant, i.e. parenchyma and fat tissue, which were weighed and measured in the gamma counter. […] Compartmental distribution was calculated as follows: Fractioncapillaries or parenchyma (%)=[…] or parenchyma/[…]×100 (4)

[6] = test system: blood-brain barrier (BBB); experiment: Classification of peptides according to their BBB influx; conditions: classification method of ref [61] applied to the measured influx
Source text: This peptide is derived from the murine vascular endothelial (VE)-cadherin, located in the adherens junctions between the vascular endothelial cells, and constitutes the 13 cytosolic amino acids closest to the membrane and five amino acids from the C-terminus of the transmembrane region (615–632).

[7] = In vitro metabolic stability in mouse serum; format: in vitro ADME
Experimental: as §1

[8] = test system: blood-brain barrier (BBB); experiment: Brain-to-blood transport (efflux) after intracerebroventricular injection; conditions: ICR-CD-1 mice
Experimental: Female, ICR-CD-1 mice (Harlan Laboratories, Venray, The Netherlands), aged 7 to 10 weeks and weighing 28–36 g, were used during the in vivo BBB transport experiments. All animal experiments were performed in accordance with the Ethical Committee principles of laboratory animal welfare. The protocol was approved by the Ethical Committee of the Faculty of Veterinary Science of Ghent University (Permit Numbers: 2009–052 and 2014–128). Prior to experiments, mice were anesthetized by intraperitoneal injection of a 40% urethane solution (3 g/kg) (Sigma-Aldrich, Diegem, Belgium).
For evaluation of the efflux of the peptides out of the brain, 1 μl of a radioiodinated peptide solution (25000 cpm/μl) was injected in the lateral ventricle of anesthetized ICR-CD-1 mice at a speed of 360 μl/h for 10 s using a syringe pump (KDS100, KR analytical, Cheshire, UK). […] The brain half-time disappearance (t1/2,brain) was calculated from the linear regression of the natural logarithm of the residual radioactivity in brain versus time as follows: t1/2,brain=ln(2)/kout (5) with kout defined as the efflux rate constant calculated as the absolute value of the slope of the linear regression, applying first order kinetics. An extensive description of the protocol can be found elsewhere.

cellular uptake = test system: cellular uptake; parameters: method as in Stalmans et al.[1]; conditions: cell-penetrating (CP-) response, quantitative expression of cellular influx; ref Stalmans et al.[1]; cited from earlier work

Q: Which results are given for “AGYLLGKINLKPLAALAKKIL-NH2 [TP10-2, transportan analog differing one amino acid from TP10]”?
A: Kin (unidirectional influx rate), linear Gjedde-Patlak model ([1]; 125I-radioiodinated peptide, IV jugular vein 200 μl (30000 cpm/μl), anesthetized female ICR-CD-1 mice, 1-15 min, brain/serum radioactivity (gamma counter) vs exposure time, pVEC, SynB3, TP10: two experiments fitted together): 0.36 µL/g/min and 0.36 ± 0.06 µL/g/min; Vi (initial brain distribution volume), linear Gjedde-Patlak model ([1]; 125I-radioiodinated, IV, ICR-CD-1 mice, MTR 1-15 min): 10.07 ± 1.00 µL/g; Half-life, brain [2]: 1.705 h; Half-life, liver [3]: 1.97 h; Half-life, kidney [4]: 0.188 h; Parenchymal fraction [5]: 84%; BBB influx class [6]: class 2; Half-life, serum ([7]; mouse serum 500 μl + 400 μl Krebs-Henseleit buffer pH 7.4 + 100 μl 1 mg/ml peptide, 37°C, 750 rpm, sampling 0-120 min plus early points, HPLC-UV 215 nm, t1/2 = -ln(2)/slope): 3.823 h; Serum half-life ([7]; mouse serum in Krebs-Henseleit buffer pH 7.4, 37°C, SPE then HPLC-UV): 4 h; kout (efflux transfer constant) ([8]; 1 μl radioiodinated peptide (25000 cpm/μl) in lateral ventricle, 1-15 min, slope of ln(brain activity) vs time): 0.06 ± 0.01 min⁻¹; t1/2,brain (half-time disappearance) ([8]; ln(2)/kout after intracerebroventricular injection): 0.183 h; CP-response (cellular uptake): 0.749
